Results from patent US20060079540A1, “Pde4 and pde3/4 inhibitors for use in the treatment of cachexia” (Altana Pharma AG, priority 2002, published 2006).

Key:
Format in all cases: cell-based, human
[1] = system: secretion of IL-1 from LXFA 526 lung adenocarcinoma Xenograft explants; test: IL-1 secretion from LXFA 526 lung adenocarcinoma xenograft explants (ELISA); settings: for IL-1 content of the supernatants: 24 hours, DMSO control 85.3 pg/ml
Description: (§1) FIG. 1: Effects of Zardaverine (left graph) and Piclamilast (right graph) on the secretion of IL-1 from LXFA 526 lung adenocarcinoma Xenograft explants. Tumor fragments from mice carrying LXFA 526 xenografts were excised and cell suspensions were seeded into 24 Well plates. After seeding of the cells, Zardaverine at concentrations of 100, 3, and 0.1 μM, respectively, and Piclamilast at concentrations of 1, 0.3 and 0.001 μM, respectively were added and supernatants were harvested 24 hours later. IL-1 content of the supernatants was quantitated using R&D Quantikine ELISA kits according to the manufacturer's recommendations.
(§2) To this end primary cultures of tumor cells were derived from cachexia inducing human xenografts grown subcutaneously in nude mice.
(§3) 5 to 10 NMRI nude mice were implanted with tumor fragments derived from the above mentioned Xenografts and grown until the tumors reached approximately 0.5 g, which correlated well with the onset of cachexia. Animals were then sacrificed and tumors were excised. Cells were subsequently isolated under sterile conditions by the use of mechanic disintegrators, proteases, hyaluronidase, and DNAse I. The crude suspension was passed twice through sterile sieves with diameters of 200 and 50 μM, respectively.
(§4) Washed cell pellets were resuspended in Iscove's modified Dulbecco's Medium +20% FCS (fetal calf serum) and 0.24 to 1×10^6 tumor cells were seeded in 24 well plates. The cell isolates not only contained tumor cells, but also blood cells and stromal elements of murine origin. The cell lines RXF 486L was directly utilized and 1×10^6 cells were seeded into each well.
(§5) Piclamilast and Zardaverine were dissolved in 100% DMSO (dimethyl sulfoxide) and applied at a final concentration of 1 μM to 0.001 μM (Piclamilast) or 100 μM to 0.1 μM (Zardaverine). Drugs and cells were plated at the same time. 24 hours after seeding supernatants were collected, centrifuged, and stored at −80° C.
(§6) For the quantitative measurement of IL-1, IL-6, and TNFα, respectively, the supernatants were analyzed using Quantikine ELISA Kits from R&D Systems according to the manufacturer's recommendations.

[2] = system: secretion of IL-1 from RXF 393 hypernephroma Xenograft explants; test: IL-1 secretion from RXF 393 hypernephroma xenograft explants (ELISA); settings: for IL-1 content of the supernatants: 24 hours, DMSO control 46.9 pg/ml
Description: as §1, with “2:” for “1:”, “RXF 393 hypernephroma” for “LXFA 526 lung adenocarcinoma”, “RXF 393” for “LXFA 526”, “100” for “100, 3,”, “0.01” for “0.3”
as §2, §3, §4, §5, §6

[3] = system: secretion of TNFα from LXFA 526 lung adenocarcinoma Xenograft explants; test: TNFα secretion from LXFA 526 lung adenocarcinoma xenograft explants (ELISA); settings: for TNFα content of the supernatants: 24 hours, DMSO control 16.8 pg/ml
Description: as §1, with “3:” for “1:”, “TNFα” for “IL-1”
as §2, §3, §4, §5, §6

[4] = system: secretion of TNFα from LXFE 397 epidermoid adenocarcinoma Xenograft explants; test: TNFα secretion from LXFE 397 epidermoid adenocarcinoma xenograft explants (ELISA); settings: for TNFα content of the supernatants: 24 hours
Description: FIG. 4: Effects of Zardaverine (left graph) and Piclamilast (right graph) on the secretion of TNFα from LXFE 397 epidermoid adenocarcinoma Xenograft explants. Tumor fragments from mice carrying LXFE 397 xenografts were excised and cell suspensions were seeded into 24 Well plates. After seeding of the cells, Zardaverine at concentrations of 30, 10, and 3 μM, respectively, and Piclamilast at concentrations of 0.3; 0.1; and 0.03 μM, respectively were added and supernatants were harvested 24 hours later. TNFα content of the supernatants was quantitated using R&D Quantikine ELISA kits according to the manufacturers recommendations.
as §2, §3, §4, §5, §6

COc1ccc(C(=O)Nc2c(Cl)cncc2Cl)cc1OC1CCCC1 [Piclamilast]
IL-1 content of the supernatants ([1]; 0.001 μM): 81.9 pg/mL | IL-1 content of the supernatants ([1]; 0.3 μM): 64.4 pg/mL | IL-1 content of the supernatants ([1]; 1 μM): 68.9 pg/mL | Modulation of IL-1 expression (in words) ([1]; LXFA 526): able to suppress IL-1 levels | IL-1 content of the supernatants ([2]; 0.001 μM): 43.2 pg/mL | IL-1 content of the supernatants ([2]; 0.01 μM): 43.9 pg/mL | IL-1 content of the supernatants ([2]; 1 μM): 37.8 pg/mL | Modulation of IL-1 expression (in words) ([2]; RXF 393): able to suppress IL-1 levels | TNFα content of the supernatants ([3]; 0.001 μM): 17.2 pg/mL | TNFα content of the supernatants ([3]; 0.3 μM): 15.1 pg/mL | TNFα content of the supernatants ([3]; 1 μM): 13.9 pg/mL | modulation of TNFα levels (in words) ([3]; LXFA 526 cells): able to inhibit the secretion of TNFα | TNFα content of the supernatants ([4]; 0.03 μM, DMSO control 21.5 pg/ml): 14.1 pg/mL | TNFα content of the supernatants ([4]; 0.1 μM, DMSO control 21.5 pg/ml): 12.1 pg/mL | TNFα content of the supernatants ([4]; 0.3 μM, DMSO control 21.5 pg/ml): 10 pg/mL | modulation of TNFα levels (in words) ([4]; LXFE 397 model): able to inhibit the secretion of TNFα

COc1cc(-c2ccc(=O)[nH]n2)ccc1OC(F)F [Zardaverine]
IL-1 content of the supernatants ([1]; 0.1 μM): 77.1 pg/mL | IL-1 content of the supernatants ([1]; 3 μM): 67.9 pg/mL | IL-1 content of the supernatants ([1]; 100 μM): 64.5 pg/mL | IL-1 content of the supernatants ([2]; 0.1 μM): 48.1 pg/mL | IL-1 content of the supernatants ([2]; 100 μM): 32.1 pg/mL | TNFα content of the supernatants ([3]; 0.1 μM): 13.8 pg/mL | TNFα content of the supernatants ([3]; 3 μM): 12.9 pg/mL | TNFα content of the supernatants ([3]; 100 μM): 12.6 pg/mL | TNFα content of the supernatants ([4]; 3 μM, DMSO control 30.3 pg/ml): 27.7 pg/mL | TNFα content of the supernatants ([4]; 10 μM, DMSO control 30.3 pg/ml): 28.2 pg/mL | TNFα content of the supernatants ([4]; 30 μM, DMSO control 30.3 pg/ml): 20.1 pg/mL
